{
  "source": "patent US20110195950A1",
  "about": "“Organic Compounds” (NOVARTIS AG, priority 2007, published 2011)",
  "key": {"[1]": {"target": "T1, alpha2 subunit of the GABA-A receptor together with a beta and a gamma subunit (Homo sapiens, UniProt P47869)", "T1 construct": "expressed in transfected cells", "T1 sequence (P47869 29-451)": "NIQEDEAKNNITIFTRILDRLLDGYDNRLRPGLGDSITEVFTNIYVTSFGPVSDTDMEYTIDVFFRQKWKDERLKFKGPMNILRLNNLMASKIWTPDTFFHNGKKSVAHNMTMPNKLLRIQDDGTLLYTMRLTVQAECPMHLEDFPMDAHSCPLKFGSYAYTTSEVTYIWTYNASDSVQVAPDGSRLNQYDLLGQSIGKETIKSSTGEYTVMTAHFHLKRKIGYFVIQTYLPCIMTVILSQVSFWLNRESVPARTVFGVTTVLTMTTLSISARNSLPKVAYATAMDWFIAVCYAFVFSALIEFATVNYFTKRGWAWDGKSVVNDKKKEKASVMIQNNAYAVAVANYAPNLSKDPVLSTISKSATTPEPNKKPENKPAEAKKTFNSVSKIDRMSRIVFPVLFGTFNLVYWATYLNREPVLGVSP", "T1 sequence (P28472 26-473 partner)": "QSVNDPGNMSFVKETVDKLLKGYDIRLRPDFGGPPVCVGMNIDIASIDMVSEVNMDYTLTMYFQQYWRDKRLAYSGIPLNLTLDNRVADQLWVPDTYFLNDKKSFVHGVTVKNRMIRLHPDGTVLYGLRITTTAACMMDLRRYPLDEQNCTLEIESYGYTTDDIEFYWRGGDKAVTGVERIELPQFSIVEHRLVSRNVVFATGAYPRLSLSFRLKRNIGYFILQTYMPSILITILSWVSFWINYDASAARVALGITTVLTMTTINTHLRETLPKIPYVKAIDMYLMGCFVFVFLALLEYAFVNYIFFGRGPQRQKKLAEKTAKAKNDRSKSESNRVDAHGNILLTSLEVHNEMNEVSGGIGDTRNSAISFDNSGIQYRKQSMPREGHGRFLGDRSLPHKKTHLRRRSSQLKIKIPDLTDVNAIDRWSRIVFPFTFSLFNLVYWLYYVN", "T1 sequence (P18507 40-467 partner limits assumed)": "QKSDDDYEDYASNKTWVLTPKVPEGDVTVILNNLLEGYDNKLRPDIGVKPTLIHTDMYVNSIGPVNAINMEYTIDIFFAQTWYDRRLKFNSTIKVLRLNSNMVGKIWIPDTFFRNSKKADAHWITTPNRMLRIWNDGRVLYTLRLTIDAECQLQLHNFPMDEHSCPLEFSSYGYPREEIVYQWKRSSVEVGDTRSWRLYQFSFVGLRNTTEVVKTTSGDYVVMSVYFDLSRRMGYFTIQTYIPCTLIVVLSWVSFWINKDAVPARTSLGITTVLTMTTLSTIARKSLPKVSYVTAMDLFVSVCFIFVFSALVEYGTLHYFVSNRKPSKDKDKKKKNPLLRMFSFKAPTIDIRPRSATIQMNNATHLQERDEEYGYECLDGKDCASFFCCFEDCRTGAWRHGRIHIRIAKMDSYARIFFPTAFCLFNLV", "assay": "GABA-A receptor modulation, voltage-sensitive dye fluorescence assay (alpha2)", "format": "cell-based", "settings": "transfected eukaryotic cell line; sub-maximal concentration of GABA; fluorescent signal of voltage-sensitive dye", "source_text": "GABA-A receptor modulators show in functional assays a positive modulation of GABA-induced signals. This modulation can be determined in vitro, e.g., at recombinant GABA-A receptors expressed in a mammalian cell line, e.g. by measurement of GABA-A receptor induced changes of the trans-membrane voltage, when using a voltage-sensitive dye and a fluorescence detection system (Adkins, C. E., Pillai, G. V., Kerby, J., Bonnert, T. P., Haldon, C., Mckernan, R. M., Gonzalez, J. E., Oades, K., Whiting, P. J. & Simpson, P. B. [2001]. alpha4beta3delta GABA-A receptors characterized by fluorescence resonance energy transfer-derived measurements of membrane potential. J. Biol. Chem., 276, 38934-38939). In this assay, a modulator compound is pre-applied at different concentrations ranging from 0.1 nM to 10 μM to cells expressing GABA-A receptors and loaded with the voltage-sensitive dye, before, or at the same time as, a sub-maximal concentration of GABA (in the range of from 0.1 to 10 μM) is applied to the cells. The fluorescent signal is correlated with the degree of GABA-A receptor channel opening. This allows the quantification of effects induced by the modulator in a functional manner. By expression of different GABA-A receptor subunit combinations, the differential efficacy of a modulator at different GABA-A receptor variants can be tested. […]"}, "[2]": {"target": "T2, alpha1 subunit of the GABA-A receptor together with a beta and a gamma subunit (Homo sapiens, UniProt P14867)", "T2 construct": "expressed in transfected cells", "T2 sequence (P14867 28-456)": "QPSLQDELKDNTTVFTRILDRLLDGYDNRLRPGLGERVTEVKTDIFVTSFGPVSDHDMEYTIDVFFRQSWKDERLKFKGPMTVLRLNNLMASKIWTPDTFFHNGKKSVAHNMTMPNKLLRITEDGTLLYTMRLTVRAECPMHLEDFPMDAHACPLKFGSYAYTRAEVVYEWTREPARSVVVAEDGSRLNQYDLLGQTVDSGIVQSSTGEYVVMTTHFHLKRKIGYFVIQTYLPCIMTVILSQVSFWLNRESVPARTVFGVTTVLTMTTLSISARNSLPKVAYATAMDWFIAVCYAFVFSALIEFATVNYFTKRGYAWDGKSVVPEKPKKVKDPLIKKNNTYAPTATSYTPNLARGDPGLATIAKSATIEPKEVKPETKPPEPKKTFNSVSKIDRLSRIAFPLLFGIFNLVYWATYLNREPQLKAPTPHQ", "T2 sequence (P47870 25-512 partner limits assumed)": "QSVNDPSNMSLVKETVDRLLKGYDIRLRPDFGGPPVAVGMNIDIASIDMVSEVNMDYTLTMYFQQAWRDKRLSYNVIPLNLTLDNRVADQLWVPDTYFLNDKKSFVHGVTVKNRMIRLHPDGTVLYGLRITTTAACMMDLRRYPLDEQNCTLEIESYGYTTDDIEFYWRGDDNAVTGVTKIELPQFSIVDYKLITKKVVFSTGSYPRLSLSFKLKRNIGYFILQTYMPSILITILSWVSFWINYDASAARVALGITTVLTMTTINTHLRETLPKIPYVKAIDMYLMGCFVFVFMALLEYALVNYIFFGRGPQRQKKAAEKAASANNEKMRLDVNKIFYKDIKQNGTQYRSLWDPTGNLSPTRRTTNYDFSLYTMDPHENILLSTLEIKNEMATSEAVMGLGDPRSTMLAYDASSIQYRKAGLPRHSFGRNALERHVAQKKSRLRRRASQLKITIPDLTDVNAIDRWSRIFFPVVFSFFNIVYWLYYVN", "T2 sequence (P18507 40-467 partner limits assumed)": "T1 sequence (P18507 40-467 partner limits assumed)", "assay": "GABA-A receptor modulation, voltage-sensitive dye fluorescence assay (alpha1)", "format": "cell-based", "settings": "transfected eukaryotic cell line; sub-maximal concentration of GABA; fluorescent signal of voltage-sensitive dye"}},
  "data": [
    {"smiles": "Clc1ccc(-n2nc3c4c(ncc3c2OCc2ccccc2Cl)CCCC4)cc1", "note": "[Example 1, 3-(2-Chloro-benzyloxy)-2-(4-chloro-phenyl)-6,7,8,9-tetrahydro-2H-pyrazolo[4,3-c]quinoline]", "values": [
      {"measurement": "modulation of the GABA-induced response, alpha2 subunit", "setting": "[1]", "value": 140, "unit": "%"},
      {"measurement": "modulation of the GABA-induced response, alpha1 subunit", "setting": "[2]", "value": 37, "unit": "%"}
    ]}
  ]
}
